From patent US7880010B2, “Crystalline forms of a dimethylphenyl compound” (Theravance, Inc., priority 2006, dated 2011)

Key:
hM4 muscarinic receptor = target: T1, hM4 muscarinic receptor (Homo sapiens, UniProt P08173); assay: Radioligand binding assay for muscarinic receptors ([3H]-NMS displacement); conditions: M4 muscarinic receptor subtype, CHO cell membranes, [3H]-NMS 1 nM
T1 construct: expressed in transfected cells; host or cells: CHO
T1 sequence (P08173 1-479): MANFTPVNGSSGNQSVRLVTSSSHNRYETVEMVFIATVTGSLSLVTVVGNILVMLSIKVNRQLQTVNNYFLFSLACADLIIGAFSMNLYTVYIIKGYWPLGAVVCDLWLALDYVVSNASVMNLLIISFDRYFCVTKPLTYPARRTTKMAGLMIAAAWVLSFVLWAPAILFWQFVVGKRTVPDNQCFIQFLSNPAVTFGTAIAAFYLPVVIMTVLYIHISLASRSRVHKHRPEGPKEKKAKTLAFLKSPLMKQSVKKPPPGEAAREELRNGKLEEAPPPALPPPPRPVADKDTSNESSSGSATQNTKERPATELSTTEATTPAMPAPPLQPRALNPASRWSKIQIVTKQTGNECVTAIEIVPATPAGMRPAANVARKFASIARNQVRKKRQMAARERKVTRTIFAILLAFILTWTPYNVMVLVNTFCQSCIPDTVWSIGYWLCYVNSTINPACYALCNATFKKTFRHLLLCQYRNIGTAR
Experimental: (§1) CHO cell lines stably expressing cloned human hM1, hM2, hM3 and hM4 muscarinic receptor subtypes, respectively, were grown to near confluency in Hams F-12 media supplemented with 10% FBS and 250 μg/mL Geneticin. The cells were grown in a 5% CO2, 37° C. incubator and lifted with 2 mM EDTA in dPBS. Cells were collected by 5 minute centrifugation at 650×g, and cell pellets were either stored frozen at −80° C. or membranes were prepared immediately for use. For membrane preparation, cell pellets were resuspended in lysis buffer and homogenized with a Polytron PT-2100 tissue disrupter (Kinematica AG; 20 seconds×2 bursts). Crude membranes were centrifuged at 40,000×g for 15 minutes at 4° C. The membrane pellet was then resuspended with re-suspension buffer and homogenized again with the Polytron tissue disrupter. The protein concentration of the membrane suspension was determined by the method described in Lowry et al., 1951, Journal of Biochemistry, 193, 265. All membranes were stored frozen in aliquots at −80° C. or used immediately. Aliquots of prepared hM5 receptor membranes were purchased directly from PerkinElmer, Inc. (Wellesley, Mass.) and stored at −80° C. until use.
(§2) Radioligand binding assays for cloned muscarinic receptors were performed in 96-well microtiter plates in a total assay volume of 100 μL. CHO cell membranes stably expressing either the hM1, hM2, hM3, hM4 or hM5 muscarinic subtype were diluted in assay buffer to the following specific target protein concentrations (μg/well): 10 μg for hM1, 10-15 μg for hM2, 10-20 μg for hM3, 10-20 μg for hM4, and 10-12 μg for hM5 to get similar signals (cpm). The membranes were briefly homogenized using a Polytron tissue disrupter (10 seconds) prior to assay plate addition. Saturation binding studies for determining KD values of the radioligand were performed using L-[N-methyl-^3H]scopolamine methyl chloride ([^3H]-NMS) (TRK666, 84.0 Ci/mmol, Amersham Pharmacia Biotech, Buckinghamshire, England) at concentrations ranging from 0.001 nM to 20 nM. Displacement assays for determination of Ki values of test compounds were performed with [^3H]-NMS at 1 nM and eleven different test compound concentrations. The test compounds were initially dissolved to a concentration of 400 μM in dilution buffer and then serially diluted 5× with dilution buffer to final concentrations ranging from 10 pM to 100 μM. The addition order and volumes to the assay plates were as follows: 25 μL radioligand, 25 μL diluted test compound, and 50 μL membranes. Assay plates were incubated for 60 minutes at 37° C. Binding reactions were terminated by rapid filtration over GF/B glass fiber filter plates (PerkinElmer, Inc.) pre-treated in 1% BSA. Filter plates were rinsed three times with wash buffer (10 mM HEPES) to remove unbound radioactivity. The plates were then air-dried and 50 μL Microscint-20 liquid scintillation fluid (PerkinElmer, Inc.) were added to each well. The plates were then counted in a PerkinElmer Topcount liquid scintillation counter (PerkinElmer, Inc.). Binding data were analyzed by nonlinear regression analysis with the GraphPad Prism Software package (GraphPad Software, Inc., San Diego, Calif.) using the one-site competition model. Ki values for test compounds were calculated from observed IC50 values and the KD value of the radioligand using the Cheng-Prusoff equation (Cheng Y; Prusoff W H. (1973) Biochemical Pharmacology, 22(23):3099-108). […]

hM1 muscarinic receptor = target: T2, hM1 muscarinic receptor (Homo sapiens, UniProt P11229); assay: as above; conditions: M1 muscarinic receptor subtype, CHO cell membranes, [3H]-NMS 1 nM
T2 construct: expressed in transfected cells; host or cells: CHO
T2 sequence (P11229 1-460): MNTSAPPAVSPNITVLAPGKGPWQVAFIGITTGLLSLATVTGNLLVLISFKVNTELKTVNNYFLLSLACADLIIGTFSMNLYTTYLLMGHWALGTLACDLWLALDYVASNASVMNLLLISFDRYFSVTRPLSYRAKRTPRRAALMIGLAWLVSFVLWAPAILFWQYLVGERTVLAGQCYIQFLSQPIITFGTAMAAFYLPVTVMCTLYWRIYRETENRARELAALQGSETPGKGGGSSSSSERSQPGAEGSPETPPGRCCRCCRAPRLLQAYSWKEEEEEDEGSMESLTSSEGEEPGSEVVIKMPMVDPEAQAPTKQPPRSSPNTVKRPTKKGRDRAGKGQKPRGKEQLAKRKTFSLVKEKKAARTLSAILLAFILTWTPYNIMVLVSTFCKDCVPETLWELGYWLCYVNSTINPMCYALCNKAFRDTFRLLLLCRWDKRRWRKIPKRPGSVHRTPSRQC
Experimental: as §1, §2

SMILES: Cc1cc(NC(=O)CCN2CCC(OC(=O)Nc3ccccc3-c3ccccc3)CC2)c(C)cc1CNC[C@H](O)c1ccc(O)c(NC=O)c1 [compound of formula I, biphenyl-2-ylcarbamic acid 1-[2-(4-{[(R)-2-(3-formylamino-4-hydroxyphenyl)-2-hydroxyethylamino]methyl}-2,5-dimethylphenylcarbamoyl)ethyl]-piperidin-4-yl ester]
- Ki (hM4 muscarinic receptor): < 0.01 µM
- Ki (hM1 muscarinic receptor): < 0.01 µM
